In patent publication US8426447B2, “Spiro-tricyclic ring compounds as beta-secretase modulators and methods of use” (Amgen Inc., priority 2008, dated 2013):

Columns and labels:
BACE1 [1] = biological target: T1, BACE1 (Homo sapiens, UniProt P56817); experiment: In Vitro BACE Cell-based Assay (HEK cell assay): Aβ40 in conditioned medium of cells stably expressing Amyloid Precursor Protein, sandwich ELISA; settings: read-out: HEK cell assay
Description: In Vitro BACE Cell-based Assay
The cell-based assay measures inhibition or reduction of Aβ40 in conditioned medium of test compound treated cells expressing amyloid precursor protein.
Cells stably expressing Amyloid Precursor Protein (APP) were plated at a density of 40K cells/well in 96 well plates (Costar). The cells were cultivated for 24 hours at 37° C. and 5% CO2 in DMEM supplemented with 10% FBS. The test compounds were then added to cells in 10-point dose response concentrations with the starting concentration being either 100 μM or 10 μM. The compounds were diluted from stock solutions in DMSO and the final DMSO concentration of the test compounds on cells was 0.1%. After 24 h of incubation with the test compounds the supernatant conditioned media was collected and the Aβ 40 levels were determined using a sandwich ELISA. The IC50 of the compound was calculated from the percent of control or percent inhibition of Aβ 40 as a function of the concentration of the test compound.
The sandwich ELISA to detect Aβ 40 was performed in 96 well microtiter plates, which were pre-treated with goat anti-rabbit IgG (Pierce). The capture and detecting antibody pair that were used to detect Aβ 40 from cell supernatants were affinity purified pAb40 (Biosource) and biotinylated 6E10 (Signet Labs Inc.), respectively. The optimal concentration for the pAb40 antibody was 3 μg/ml in Superblock/TBS (Pierce) that was supplemented with 0.05% Tween 20 (Sigma).
Cellular supernatants were incubated with the capture antibody for 3 h at 4° C., followed by 3 wash steps in TBS-tween (0.05%). The detecting antibody incubation was for 2 h at 4° C., again followed by the wash steps as described previously. The final readout of the ELISA is Time-Resolved Fluorescence (counts per minute) using Delfia reagents Streptavidin-Europium and Enhancement solutions (Perkin Elmer) and the Victor 2 multilabel counter (Perkin Elmer).

BACE1 [2] = biological target: T1, BACE1; experiment: In Vitro Enzymatic BACE FRET (Fluorescence Resonance Energy Transfer) Assay; format: biochemical; settings: read-out: BACE1 FRET assay
Description: In Vitro Enzymatic BACE FRET (Fluorescence Resonance Energy Transfer) Assay (Enzyme Assay Data in the Example Tables I, II, III & IV) The assay buffer used in this screen is 0.05 M acetate, pH 4.2, 10% DMSO final, 100 uM genapol (which is a nonionic detergent, below its Critical Micelle Concentration). […] This assay is effectively started by the addition of FRET substrate (50 nM) and the combination is incubated for one hour. The FRET assay is terminated with by addition of Tris buffer, which raises the pH to neutrality, and the fluorescence is determined. The FRET substrate is a peptide with commercially available fluorophore and quencher, on opposite sides of the BACE cleavage site. […]

T1 sequence (P56817 46-501, species assumed): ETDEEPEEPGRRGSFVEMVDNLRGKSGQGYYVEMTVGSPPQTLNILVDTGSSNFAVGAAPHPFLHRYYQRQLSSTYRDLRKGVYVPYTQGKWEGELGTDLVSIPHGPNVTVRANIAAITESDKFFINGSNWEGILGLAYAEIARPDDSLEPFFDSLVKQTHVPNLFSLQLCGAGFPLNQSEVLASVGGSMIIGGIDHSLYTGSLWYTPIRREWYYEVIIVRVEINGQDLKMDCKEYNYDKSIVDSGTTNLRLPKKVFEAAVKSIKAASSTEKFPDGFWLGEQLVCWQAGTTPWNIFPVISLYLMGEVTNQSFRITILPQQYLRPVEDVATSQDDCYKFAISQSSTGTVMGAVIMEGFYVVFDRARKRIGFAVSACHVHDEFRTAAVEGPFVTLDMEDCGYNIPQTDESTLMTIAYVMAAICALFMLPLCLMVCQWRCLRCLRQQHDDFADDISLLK

Row | IC50 (BACE1 [2]) [µM] | IC50 (BACE1 [1]; Table IV, class symbols) [µM] | IC50 (BACE1 [2]; Table IV, class symbols) [µM] | SMILES | also measured
1 | < 0.1 |  |  | NC1=N[C@@]2(CO1)c1cc(-c3cccnc3)ccc1Oc1ncc(C3=CCOCC3)cc12 [compound 664] | IC50 (BACE1 [1]): < 0.1 µM
2 |  |  |  | COC(C)(C)C#Cc1ccc2c(c1)C1(COC(N)=N1)c1cc(C#CC(C)(C)OC)ccc1O2 [Example 119, 2′,7′-bis(3-methoxy-3-methylbut-1-ynyl)-5H-spiro[oxazole-4,9′-xanthen]-2-amine] | IC50 (BACE1 [1]; Table III, IC50's in uM ranges): 0.1 to 1 µM; IC50 (BACE1 [2]; Table III, IC50's in uM ranges): 0.1 to 1 µM
3 |  | 0.1 to 1 | 0.1 to 1 | NC1=N[C@]2(CO1)c1ccccc1Oc1ncc(-c3cncnc3)cc12 [compound 661] | 
4 |  |  |  | CC(C)(C)CCc1ccc2c(c1)[C@]1(COC(N)=N1)c1cc(Oc3ccccn3)ccc1O2 [compound 205] | IC50 (BACE1 [1]; Table III, IC50's in uM ranges): 0.1 to 1 µM; IC50 (BACE1 [2]; Table III, IC50's in uM ranges): < 0.1 µM
5 | 1 to 5 |  |  | NC1=NC2(CO1)c1cc(C3CC3)ccc1Oc1ccc(C3CC3)cc12 [compound 760] | IC50 (BACE1 [1]): 1 to 5 µM
6 |  | 0.1 to 1 | < 0.1 | CC1(COc2ccc3c(c2)[C@]2(COC(N)=N2)c2cc(-c4cncnc4)cc(F)c2O3)COC1 [compound 796] | 
7 |  |  |  | NC1=N[C@]2(CO1)c1cc(OCC3CCCO3)ccc1Oc1ccc(-c3cncnc3)cc12 (stereo partly drawn) [Example 60, (4S)-2′-(5-pyrimidinyl)-7′-(tetrahydro-2-furanylmethoxy)spiro[1,3-oxazole-4,9′-xanthen]-2-amine] | IC50 (BACE1 [1]; Table II, Aβ40, 24 h incubation): < 0.1 µM; IC50 (BACE1 [2]; Table II): < 0.1 µM
8 | 0.1 to 1 |  |  | CC1(COc2cc3c(cc2F)Oc2ccc(-c4cncnc4)cc2[C@]32COC(N)=N2)COC1 [compound 713] | IC50 (BACE1 [1]): 0.1 to 1 µM
9 |  |  |  | NC1=NC2(CO1)c1cc(-c3cccnc3)ccc1Oc1c2cc(-c2cccnc2)nc1F (centres unmarked) [compound 301, 1-fluoro-3,7-di(pyridin-3-yl)-5′H-spiro[chromeno[2,3-c]pyridine-5,4′-oxazol]-2′-amine] | IC50 (BACE1 [1]; HEK cell-based assay, Aβ40 in conditioned medium, IC50 class symbols): < 0.1 µM; IC50 (BACE1 [2]; in vitro BACE FRET enzyme assay, IC50 class symbols): < 0.1 µM
10 |  |  |  | NC1=NC2(CO1)c1cc(-c3ccc(F)nc3)ccc1Oc1ccc(-c3ccc(F)nc3)cc12 [compound 196] | IC50 (BACE1 [1]; Table III, IC50's in uM ranges): 0.1 to 1 µM; IC50 (BACE1 [2]; Table III, IC50's in uM ranges): < 0.1 µM
11 |  | < 0.1 | < 0.1 | Cn1cc(-c2ccc3c(c2)[C@]2(COC(N)=N2)c2cc(-c4cccnc4F)ccc2O3)cn1 [compound 642] | 
12 |  | < 0.1 | < 0.1 | COC(C)(C)COc1ccc2c(c1)[C@@]1(COC(N)=N1)c1cc(-c3ccccc3)cnc1O2 [compound 818] | 
13 | < 0.1 |  |  | CC(C)(O)COc1ccc2c(c1C#N)[C@]1(COC(N)=N1)c1cc(-c3cccnc3)ccc1O2 [compound 929] | IC50 (BACE1 [1]): 0.1 to 1 µM
14 |  | 1 to 5 | 0.1 to 1 | Cc1cccc(-c2ccc3c(c2)[C@]2(COC(N)=N2)c2cccnc2O3)c1 [compound 596] | 
15 |  | 0.1 to 1 | < 0.1 | CC(C)(C)C#Cc1cnc2c(c1)[C@]1(COC(N)=N1)c1cc(-c3cncnc3)cc(F)c1O2 [compound 537] | 
16 |  | > 5 | > 5 | NC1=N[C@@]2(CO1)c1ccccc1Oc1ccc(C(=O)N3CCCCC3)cc12 [compound 639] | 
17 |  | 1 to 5 | 1 to 5 | CC(=O)COc1ccc2c(c1)[C@]1(COC(N)=N1)c1cc(-c3cccnc3)cnc1O2 [compound 865] | 
18 |  |  |  | COc1ccc2c(c1)C1(COC(N)=N1)c1cc(-c3cccc(OC(F)(F)F)c3)ccc1O2 (centres unmarked) [Example 22, 2′-methoxy-7′-(3-(trifluoromethoxy)phenyl)spiro[1,3-oxazole-4,9′-xanthen]-2-amine] | IC50 (BACE1 [1]; Table 1, Aβ40, 24 h incubation): 1 to 5 µM; IC50 (BACE1 [2]; Table 1): 1 to 5 µM
19 | 0.1 to 1 |  |  | Cc1cscc1-c1ccc2c(c1)[C@@]1(COC(N)=N1)c1cc(OCC(C)(C)C)ccc1O2 [compound 738] | IC50 (BACE1 [1]): 1 to 5 µM
20 |  | 1 to 5 | 1 to 5 | NC1=N[C@@]2(CO1)c1ccccc1Oc1ccc(-c3cccnc3)cc12 [compound 640] | 
21 | < 0.1 |  |  | CC1(C#Cc2cnc3c(c2)[C@]2(COC(N)=N2)c2cc(-c4cc(Cl)ccc4F)ccc2O3)COC1 [compound 521, (5S)-7-(5-chloro-2-fluorophenyl)-3-((3-methyl-3-oxetanyl)ethynyl)spiro[chromeno[2,3-b]pyridine-5,4′-[1,3]oxazol]-2′-amine] | IC50 (BACE1 [1]; HEK cells): < 0.1 µM

Row | SMILES | IC50 (BACE1 [2]) [µM] | IC50 (BACE1 [1]; Table IV, class symbols) [µM] | IC50 (BACE1 [2]; Table IV, class symbols) [µM] | also measured
22 | CC(C)(C)CCOc1nccc2c1[C@@]1(COC(N)=N1)c1cc(-c3cncnc3)ccc1O2 [compound 985] | 0.1 to 1 |  |  | IC50 (BACE1 [1]): > 5 µM
